Measurements published in ChEMBL document CHEMBL5113486, “Hit-to-lead optimization of novel phenyl imidazole carboxamides that are active against Leishmania donovani” (Eur J Med Chem, 2022).
≈ marks a conversion by molar mass, not a printed value.

Assays:
Leishmania donovani [1] = experiment: Antileishmanial activity against Leishmania donovani infected in human THP-1 cells assessed as growth inhibition by intramacrophage assay; format: functional, organism-based
[2] = Cytotoxicity against human HepG2 cells assessed as cell growth inhibition at 100 uM; format: toxicity, cell-based; conditions: read-out: Activity
[3] = Solubility of the compound in DMSO; format: physicochemical
[4] = Selectivity index, ratio of CC50 for cytotoxicity against human THP-1 cells to IC50 for antileishmanial activity against Leishmania donovani infected in human THP-1 cells; format: toxicity, cell-based; conditions: read-out: Ratio CC50/IC50
[5] = Cytotoxicity against human THP-1 cells assessed as cell growth inhibition; format: toxicity, cell-based
Leishmania donovani [6] = experiment: Antileishmanial activity against Leishmania donovani infected in human THP-1 cells assessed as growth inhibition at 100 uM by intramacrophage assay; format: functional; set-up: scale not given: the % may be the effect or the level left
HepG2 [7] = experiment: Mitotoxicity in human HepG2 cells assessed as reduction in metabolic activity under glucose containing medium by crabtree effect assay; format: toxicity, cell-based
[8] = Drug degradation in human liver microsomes; format: ADME, Microsome; conditions: read-out: Drug degradation
[9] = (§1) Cytotoxicity against human HepG2 cells assessed as inhibition of cell growth under glucose containing medium by crabtree effect assay; format: toxicity, cell-based; conditions: HepG2 cells
[10] = Kinetic solubility of the compound at pH 6.5 by nephelometry; format: physicochemical; conditions: buffer, read-out: Kinetic_solubility
HepG2 [11] = experiment: Mitotoxicity in human HepG2 cells assessed as reduction in metabolic activity under galactose containing medium by crabtree effect assay; format: toxicity, cell-based
[12] = Metabolic stability in human liver microsomes assessed as half-life; format: ADME, Microsome
[13] = Kinetic solubility of the compound at pH 2.0 by nephelometry; format: physicochemical; conditions: buffer, read-out: Kinetic_solubility
[14] = Metabolic stability in human liver microsomes assessed as intrinsic clearance measured per mg protein; format: ADME, Microsome; conditions: read-out: CLH
[15] = Metabolic stability in mouse liver microsomes assessed as half life; format: ADME, Microsome
HepG2 [16] = experiment: Cytotoxicity against human HepG2 cells assessed as inhibition of cell growth under galactose containing medium by crabtree effect assay; format: toxicity, cell-based
[17] = Metabolic stability in mouse liver microsomes assessed as intrinsic clearance measured per mg protein; format: ADME, Microsome; conditions: read-out: CLH
Leishmania donovani [18] = experiment: Antileishmanial activity against Leishmania donovani axenic amastigotes assessed as growth inhibition by fluorescence intensity readout assay; format: functional, organism-based
[19] = Lipophilicity, log P of the compound; format: physicochemical; conditions: octanol/water
[20] = Cytotoxicity against human HepG2 cells assessed as cell growth inhibition; format: toxicity, cell-based
[21] = Solubility of the compound upto 800 uM; format: physicochemical
[22] = Metabolic stability in mouse liver microsomes assessed as half life measured at 2 to 5 mins; format: ADME, Microsome; conditions: time 2-5 min
[23] = Metabolic stability in mouse liver microsomes assessed as intrinsic clearance measured per mg protein at 2 to 5 mins; format: ADME, Microsome; conditions: time 2-5 min, read-out: CLH
[24] = Stability in mouse liver microsomes assessed as parent compound remaining measured at 2 mins; format: ADME, Microsome
HepG2 [25] = experiment: as §1; format: toxicity, cell-based; conditions: hepg2

| Compound | IC50 (Leishmania donovani [1]) | inhibition at 100 µM [2] | selectivity ratio [4] | CC50 [5] | Activity (Leishmania donovani [6]) | solubility kinetic [10] | half-life [12] | solubility kinetic [13] | microsomal CLint [14] | further results |
| --- | --- | --- | --- | --- | --- | --- | --- | --- | --- | --- |
| COc1ccc(-c2cnc(NC(=O)c3ccccc3)n2C)cc1 | 28 µM | < 50% | > 3.6 | > 100 µM | – | – | – | – | – | solubility [3]: Insoluble |
| COc1ccc(-c2ccc(NC(=O)c3ccc(F)cc3)nc2)cc1 | > 100 µM | < 50% | > 1 | > 100 µM | <50% | – | – | – | – | solubility [3]: Insoluble |
| Cn1c(-c2cccc(Cl)c2)cnc1NC(=O)c1ncc[nH]1 | 0.74 µM | – | 74 | 55 µM | – | 3.1 µg/mL (≈ 10.3 µM) | 229 min | 12.5 µg/mL (≈ 41.4 µM) | 8 µL/min/mg | Activity (HepG2 [7]): Non-Toxic; metabolised [8]: < 15%; CC50 [9]: 17 µM; Activity (HepG2 [11]): Non-Toxic; half-life [15]: 82 min; Activity (HepG2 [16]): Non-Toxic; microsomal CLint [17]: 21 µL/min/mg |
| COc1ccc(-c2cnc(NC(=O)c3ccc(F)cc3)n2C)cc1 | – | < 50% | > 8.3 | ≥ 50 µM | – | < 1.6 µg/mL | 59 min | 12.5 µg/mL (≈ 38.4 µM) | 30 µL/min/mg | IC50 (Leishmania donovani [18]): 3.2 µM; logP [19]: 3.6; half-life [15]: 4 min; microsomal CLint [17]: 396 µL/min/mg; CC50 [20]: 100 µM |
| COc1ccc(-c2nc3ncc(-c4ccc(F)cc4)cc3[nH]2)cc1 | > 100 µM | < 50% | > 1 | > 100 µM | <50% | – | – | – | – | solubility [21]: Insoluble |
| O=C(Nc1ncc(-c2ccccc2)o1)c1ccc(F)cc1 | 1.1 µM | – | 15 | 17 µM | – | 6.3 µg/mL (≈ 22.3 µM) | 19 min | 25 µg/mL (≈ 88.6 µM) | 90 µL/min/mg | half-life [22]: 5 min; microsomal CLint [23]: 352 µL/min/mg |
| COc1ccc(-c2cnc(NC(=O)c3cc(-c4ccccn4)n[nH]3)n2C)cc1 | – | < 50% | > 19 | ≥ 50 µM | – | – | – | – | – | IC50 (Leishmania donovani [18]): 4 µM; logP [19]: 3.2; CC50 [20]: 100 µM |
| Cn1c(-c2ccccc2)cnc1NC(=O)c1ncc[nH]1 | 6.4 µM | < 50% | > 16 | > 100 µM | – | – | 88 min | – | 20 µL/min/mg | Stability [24]: Unstable; half-life [15]: < 2 min; microsomal CLint [17]: > 866 µL/min/mg |
| Cn1c(-c2ccccc2)cnc1NC(=O)c1ccc(F)cc1 | 36 µM | < 50% | > 2.8 | > 100 µM | – | 25 µg/mL (≈ 84.7 µM) | – | 25 µg/mL (≈ 84.7 µM) | – | – |
| COc1ccc(-c2cnc(NC(=O)C3CCCCC3)n2C)cc1 | > 100 µM | < 50% | > 1 | > 100 µM | <50% | – | – | – | – | solubility [3]: Insoluble |
| COc1ccc(-c2cnc(NC(=O)c3ccccc3F)n2C)cc1 | > 100 µM | < 50% | > 1 | > 100 µM | <50% | – | – | – | – | – |
| COc1ccc(-c2cnc3nc(-c4ccc(F)cc4)[nH]c3c2)cc1 | > 100 µM | < 50% | > 1 | > 100 µM | <50% | – | – | – | – | solubility [21]: Insoluble |
| COc1ccc(-c2cnc(NC(=O)c3cccc(C#N)c3)n2C)cc1 | > 100 µM | < 50% | > 1 | > 100 µM | <50% | – | – | – | – | – |
| COc1ccc(-c2cnc(NC(=O)c3cccc(C)c3)n2C)cc1 | > 100 µM | < 50% | > 1 | > 100 µM | – | – | – | – | – | solubility [3]: Insoluble |
| Cn1c(-c2ccc(Cl)cc2)cnc1NC(=O)c1ncc[nH]1 | 0.52 µM | – | 100 | 52 µM | – | 25 µg/mL (≈ 82.9 µM) | > 255 min | 50 µg/mL (≈ 166 µM) | < 7 µL/min/mg | Activity (HepG2 [7]): Non-Toxic; metabolised [8]: < 15%; Activity (HepG2 [25]): Non-Toxic; Activity (HepG2 [11]): Non-Toxic; half-life [15]: 43 min; Activity (HepG2 [16]): Non-Toxic; microsomal CLint [17]: 41 µL/min/mg |
| COc1ccc(-c2cnc(NC(=O)c3ccc(C#N)cc3)n2C)cc1 | > 100 µM | < 50% | > 1 | > 100 µM | <50% | – | – | – | – | – |
| COc1ccc(-c2cnc(NC(=O)c3ncc[nH]3)n2C)cc1 | 11 µM | < 50% | > 9.1 | > 100 µM | <50% | 6.3 µg/mL (≈ 21.2 µM) | > 255 min | > 100 µg/mL | < 7 µL/min/mg | metabolised [8]: < 15%; half-life [15]: 3 min; microsomal CLint [17]: 511 µL/min/mg |
| COc1ccc(-c2cnc(NC(=O)c3cnc[nH]3)n2C)cc1 | > 100 µM | < 50% | > 1 | > 100 µM | <50% | – | – | – | – | – |
